From patent publication EP0726257A1, “1-(Hetero)Arylvinyl-5H-2,3-benzodiazepine derivatives useful for the treatment of central nervous system disorders, and benzopyrylium intermediates for their preparation” (EGIS GYOGYSZERGYAR RT., priority 1995, dated 1996) come the findings set out here.

Read-outs that look alike come from different tables or passages of the source. Where only a bound is given, the exact number is not on record here.

Data set [1] has as its system spontaneous motor activity (SMA) in mice. Kind of data set: Behavioural effects according to Irwin (decrease in spontaneous motor activity). In kind it is in vivo. The procedure: (§1) The behavioural effects of 1-[2'-(substituted) vinyl]-5H-2,3-benzodiazepine derivatives according to the invention and of reference substances were measured according to the method of Irwin (Psychopharmacology, 13, 222 [1968]). The results and the acute toxicity data (dead/treated animals, shown in brackets) can be seen in the following Table II
(§2) From the above Table II it can be taken that the 1-[2'-(substituted) vinyl]-5H-2,3-benzodiazepine derivatives according to the invention considerably decrease the spontaneous motor activity (SMA) in mice after intraperitoneal or oral administration.

Another data set has as its system Catalepsy in rats. Kind of data set: Cataleptic effect in rats (Morpurgo). It counts as in vivo. Conditions: p.o. The protocol: (§3) The cataleptic effect of the compounds was measured both in mice (Schlichtegroll: Arzneim. Forsch., 8, 489, [1958]) and in rats (Morpurgo: Arch. Int. Pharmacodyn., 137, 87, [1962]).
Data set [2] has as its system mice. Briefly: Fighting behaviour method of Tedeschi, antiaggressive effect. In kind it is in vivo. The following applies: Mus musculus, po, read-out: ED50 Fighting behaviour. The source says: (§4) The anxiolytic activity was studied in rats according to the "lick-conflict" test elaborated by Vogel et al. (Psychopharmacology, 21, 1, [1971] and the elevated plus-maze test described by Pellow (Pellow, J.: Neurosci. Meth. 14, 149, [1985]). The antiaggressive effect was investigated in mice using the "fighting behaviour" method of Tedeschi (J. Pharm. Exp. Ther., 125, 28, [1959]). The minimal effective dose (MED) values and the ED50 values obtained are shown in the following Table V.

Data set [3] concerns "climbing" reaction induced by 5,6,6a,7-tetra-(hydro)-6-(methyl)-4H-dibenzo[de,g]quinoline-10,11-di-(ol){apomorphine}. Kind of data set: Inhibition of apomorphine-induced climbing according to Puech et al. In kind it is in vivo. The procedure:
(§5) The potential antipsychotic activity of 1-[2'-(substituted) vinyl]-5H-2,3-benzodiazepine derivatives according to the invention and of reference substances was tested according to the method of Puech et al. (Psychopharmacology, 75, 84, [1981] by measuring their inhibiting effect on the "climbing" reaction induced by 5,6,6a,7-tetra-(hydro)-6-(methyl)-4H-dibenzo[de,g]quinoline-10,11-di-(ol){apomorphine}. The results have been expressed as ED50 values. Since the inhibition of the spontaneous motor activity (SMA) is an important characteristic of the antipsychotic drugs, the ED50 values of a number of compounds were determined according to the method of Borsy et al. (Arch. Int. Pharmacodyn., 124, 1, 196).

Data set [4] concerns rats. Kind of data set: Elevated plus-maze test (Pellow), anxiolytic activity. It counts as in vivo. Conditions: Rattus norvegicus, ip, read-out: Minimal effective dose [MED] Elevated + Maze.
Description: as §4
The anxiolytic activity of these compounds was investigated in the elevated plus maze test. Male rats belonging to the Sprague Dawley strain and weighing 220 to 260 g were used as test animals. The test was carried out with the aid of a wooden plus-shaped maze elevated to a height of 50 cm and containing two enclosed and two open arms (50 cm long and 15 cm wide). After 60 minutes pretreatment the animals were placed into the maze and observed for 5 minutes. The drug effect was expressed as percent increase of the time spent on the open arms and number of open arm entries. The minimum effective dose (MED) which caused a significant increase of the time spent on the open arms was calculated for every substance [Pelow, S., Chopin, P., File, S.E., Briley, M.: J. Neurosci. Methods 14, 149 to 167 [1985]).

Data set [5] has as its system spontaneous motor activity of mice. Briefly: Inhibition of spontaneous motor activity according to Borsy et al. In kind it is in vivo. The protocol: as §5
The effect of the 1-[2'-(substituted) vinyl]-5H-2,3-benzodiazepine derivatives according to the invention on the spontaneous motor activity was tested according to the method of Borsy et al. Groups consisting of 3 mice were treated orally with different doses of the compounds to be tested. Then the animals were placed into a 10-channel Dews system equipment, wherein the number of interruptions of infrared beam within 30 minutes was counted. […]

The subject of data set [6] is rats. Briefly: Lick-conflict test (Vogel et al.), anxiolytic activity. In kind it is in vivo. Conditions: Rattus norvegicus, po, read-out: Minimal effective dose [MED] Lick conflict.
Description: as §4

The test system of data set [7] is mice. Kind of data set: Acute toxicity (dead/treated animals) in the Irwin test. In kind it is in vivo. The protocol:
as §1, §2

The next data set has as its system Catalepsy in mice. Kind of data set: Cataleptic effect in mice (Schlichtegroll). In kind it is in vivo. Conditions: p.o. The protocol: as §3
Data set [8] addresses homophthalazine binding site. Kind of data set: Displacement of 3H-girisopam from the homophthalazine binding site in rat brain striatal membrane preparation. The following applies: displacing 5 nM 3H-girisopam. The procedure: Ki values were calculated according to the following equation: Ki = IC50 :(1 +([L])/(KD)), [formula] wherein KD is the dissociation constant of the labelled ligand-receptor complex, [L] is the concentration of the labelled ligand and IC50 is the half maximal inhibitory concentration of the test compound.
On the technique in general: Displacement assays read how much labelled ligand stays bound in the presence of the test substance.

The test system of data set [9] is convulsions caused by 6,7,8,9-tetrahydro-5H-tetrazoloazepine [pentetrazole]. Kind of data set: Inhibition of pentetrazole-induced convulsions (modified method of Benziger and Hane). In kind it is in vivo. Conditions: Mus musculus, po, mice, read-out: ID50 (the source's name). The procedure: The inhibiting effect against convulsions caused by 6,7,8,9-tetrahydro-5H-tetrazoloazepine [pentetrazole] was defined by the modified method of Benziger and Hane. Groups of male and female mice belonging to the NMRI strain and weighing 20 to 25 g were used. The tonic extensor convulsions of the hind limbs caused by intraperitoneally administered 125 mg/kg of 6,7,8,9-tetrahydro-5H-tetrazoloazepine [pentetrazole] were registered on the animals of groups consisting of 6 to 12 animals. The test compounds and the carrier were administered 1 hour before administering the 6,7,8,9-tetrahydro-5H-tetrazoloazepine [pentetrazole] (Benziger, R., Hane, D.: Arch. Int. Pharmacodyn. 167, 245 [1967]).

Data set [10] is described as follows: Cataleptic effect in mice (Schlichtegroll). Conditions: mouse, in vivo, Tables III and IV compared, read-out: dose causing catalepsy on mice relative to the spontaneous motor activity (SMA) decreasing ED50 dose. It counts as in vivo. The protocol: as §3
Setting [11] is: po, read-out: {apomorphine} Climbing ED50.
Where [12] appears, read: Mus musculus, po, read-out: Spontaneous motor activity SMA ED50.

With `COc1cc2c(cc1OC)C(C=Cc1ccc(N(C)C)cc1)=NN=C(C)C2` [Example 4, 1-[4'-(Dimethylamino)-styryl)-4-[methyl]-7,8-di-[methoxy]-5H-2,3-benzodiazepine], the Behaviour entry in data set [1] (300 mg/kg i.p.) and in [1] (1000 mg/kg p.o.) was “+ +” each time. In addition, the “Catalepsy in rats Minimal effective dose [MED]” value in the data set on Catalepsy in rats is greater than 100 mg/kg. Besides, the ED50 was 7.4 mg/kg with mice [2] (mice); 9.1 mg/kg in [3] (po; read-out: {apomorphine} Climbing ED50); 4.1 mg/kg in [5] (Mus musculus, po; read-out: Spontaneous motor activity SMA ED50). The values for the minimal effective dose in the data set on rats [4] (rats) and in the data set on rats [6] (rats) were 5 mg/kg and 0.3 mg/kg, respectively. The “acute toxicity (dead/treated animals)” value in the data set with mice [7] (300 mg/kg i.p.) and in the data set with mice [7] (1000 mg/kg p.o.) was 1/5 in each case. The “Catalepsy in mice Minimal effective dose [MED]” value in the data set on Catalepsy in mice is reported as greater than 100 mg/kg. The Ki (usually the equilibrium dissociation constant of an inhibitor or competing ligand from its target) in data set [8] was found to be 11 nM.
Take `NC(=O)N1c2ccccc2C=Cc2ccccc21` [carbamazepine, 5H-dibenz[b,f]azepine-5-carboxamide]: in data set [9], the ED50 is 7.1 mg/kg.
Regarding `CN(C)CCCN1c2ccccc2Sc2ccc(Cl)cc21` [chlorpromazine, 2-(chloro)-10-(3'-〈dimethylamino〉-propyl)-phenothiazine, reference compound], the “Catalepsy in rats Minimal effective dose [MED]” value with Catalepsy in rats worked out at 20 mg/kg. Also, the results for the ED50 in data set [3] (setting [11]) and in data set [5] (setting [12]) were 1.1 mg/kg and 2 mg/kg, respectively. The “Catalepsy in mice Minimal effective dose [MED]” value in the data set on Catalepsy in mice stood at 10 mg/kg. Further, the selectivity ratio in data set [10] worked out at 5.
For `COc1cc2c(cc1OC)C(c1ccc(N)cc1)=NN=C(C)C2` [nerisopam, 1-(4'-〈amino〉-phenyl)-4-(methyl)-7,8-di-(methoxy)-5H-2,3-benzodiazepine, reference compound], the Behaviour result in data set [1] (300 mg/kg i.p.) is reported as “+ +”. Also, in the data set on Catalepsy in rats, the “Catalepsy in rats Minimal effective dose [MED]” value was 60 mg/kg. Besides, the ED50 in the data set on mice [2] was determined as 4 mg/kg; in [3] (setting [11]), 0.9 mg/kg; in data set [5] (setting [12]) it was 2.5 mg/kg. Besides, the minimal effective dose in the data set on rats [4] and in the data set on rats [6] was 0.3 mg/kg each time. Also, in the data set with mice [7] (300 mg/kg i.p.), the “acute toxicity (dead/treated animals)” value is 5/6. Further, the “Catalepsy in mice Minimal effective dose [MED]” value with Catalepsy in mice came to 40 mg/kg.
